Literature values in patent US20170158776A1, “TREATMENT OF LUNG CANCER USING A COMBINATION OF AN ANTI-PD-1 ANTIBODY AND ANOTHER ANTI-CANCER AGENT” (Bristol-Myers Squibb Company, priority 2014, published 2017).

System: EGFR MT NSCLC
Details: first-line treatment of EGFR MT NSCLC; cited from earlier work

**Q.** With `C#Cc1cccc(Nc2ncnc3cc(OCCOC)c(OCCOC)cc23)c1` [erlotinib] as the compound, how does the “median progression-free survival (PFS)” value read?
**A.** The value was 10.4 months.
